Experiments:
HeLa [1] = experiment: Ratio of 5-fluorouracil IC50 to compound IC50 for human HeLa cells; format: functional
MCF7 [2] = experiment: Ratio of 5-fluorouracil IC50 to compound IC50 for human MCF7 cells; format: functional
HEp-2 [3] = experiment: Ratio of 5-fluorouracil IC50 to compound IC50 for human Hep2 cells; format: functional
[4] = Ratio of 5-fluorouracil IC50 to compound IC50 for human MDA-MB-435S cells; format: functional
SW480 [5] = experiment: Ratio of 5-fluorouracil IC50 to compound IC50 for human SW480 cells; format: functional
[6] = Ratio of 5-fluorouracil IC50 to compound IC50 for human LM7 cells; format: functional
MCF7 [7] = experiment: Cytotoxicity against human MCF7 cells after 72 hrs by MTT assay; format: functional, cell-based; details: MCF7, 72 h
HEp-2 [8] = experiment: Cytotoxicity against human Hep2 cells after 72 hrs by MTT assay; format: functional, cell-based; details: HEp-2, 72 h
[9] = Cytotoxicity against human MDA-MB-435S cells after 72 hrs by MTT assay; format: functional, cell-based
SW480 [10] = experiment: Cytotoxicity against human SW480 cells after 72 hrs by MTT assay; format: functional, cell-based; details: SW480, 72 h
[11] = Cytotoxicity against human LM7 cells after 72 hrs by MTT assay; format: functional, cell-based; details: LM7, 72 h
HeLa [12] = experiment: Cytotoxicity against human HeLa cells after 72 hrs by MTT assay; format: functional, cell-based
SW480 [13] = experiment: Cell cycle arrest in human SW480 cells assessed as accumulation at G2/M phase after 48 hrs by propidium iodide staining-based flow cytometry; format: functional
SW480 [14] = experiment: Cell cycle arrest in human SW480 cells assessed as accumulation at G2/M phase at 1.2 uM after 48 hrs by propidium iodide staining-based flow cytometry (reference value: 13.99 +/- 0.35%); format: functional
SW480 [15] = experiment: Cell cycle arrest in human SW480 cells assessed as accumulation at G2/M phase at 1 uM after 48 hrs by propidium iodide staining-based flow cytometry (reference value: 13.99 +/- 0.35%); format: functional
SW480 [16] = experiment: Cell cycle arrest in human SW480 cells assessed as accumulation at G2/M phase at 0.8 uM after 48 hrs by propidium iodide staining-based flow cytometry (reference value: 13.99 +/- 0.35%); format: functional
SW480 [17] = experiment: Cell cycle arrest in human SW480 cells assessed as accumulation at S phase at 1.2 uM after 48 hrs by propidium iodide staining-based flow cytometry (reference value: 14.01 +/- 0.86%); format: functional
SW480 [18] = experiment: Cell cycle arrest in human SW480 cells assessed as accumulation at S phase at 1 uM after 48 hrs by propidium iodide staining-based flow cytometry (reference value: 14.01 +/- 0.86%); format: functional
SW480 [19] = experiment: Cell cycle arrest in human SW480 cells assessed as accumulation at S phase at 0.8 uM after 48 hrs by propidium iodide staining-based flow cytometry (reference value: 14.01 +/- 0.86%); format: functional
SW480 [20] = experiment: Cell cycle arrest in human SW480 cells assessed as accumulation at G0/G1 phase at 1.2 uM after 48 hrs by propidium iodide staining-based flow cytometry (reference value: 72.00 +/- 4.30%); format: functional
SW480 [21] = experiment: Cell cycle arrest in human SW480 cells assessed as accumulation at G0/G1 phase at 0.8 uM after 48 hrs by propidium iodide staining-based flow cytometry (reference value: 72.00 +/- 4.30%); format: functional
SW480 [22] = experiment: Cell cycle arrest in human SW480 cells assessed as accumulation at G0/G1 phase at 1 uM after 48 hrs by propidium iodide staining-based flow cytometry (reference value: 72.00 +/- 4.30%); format: functional

Structure (SMILES) | IC50 (MCF7 [7]) [µM] | IC50 (HEp-2 [8]) [µM] | IC50 [9] [µM] | IC50 (SW480 [10]) [µM] | IC50 [11] [µM] | IC50 (HeLa [12]) [µM] | other results
O=c1c(CSc2cc(=O)c3ccccc3s2)coc2ccccc12 | 5.4 | 1.4 | 1.7 | 3.6 | 2.8 | 2.6 | Ratio IC50 (HeLa [1]): 0.7; Ratio IC50 (MCF7 [2]): 0.5; Ratio IC50 (HEp-2 [3]): 33.9; Ratio IC50 [4]: 8.3; Ratio IC50 (SW480 [5]): 2.3; Ratio IC50 [6]: 6.6
Cc1nnc(SCc2coc3ccccc3c2=O)o1 | 4.6 | 3.8 | 1.2 | 0.79 | 3.5 | 1.4 | Ratio IC50 (HeLa [1]): 0.7; Ratio IC50 (MCF7 [2]): 0.5; Ratio IC50 (HEp-2 [3]): 33.9; Ratio IC50 [4]: 8.3; Ratio IC50 (SW480 [5]): 2.3; Ratio IC50 [6]: 6.6
Cc1nnc(SCc2coc3ccccc3c2=O)s1 | 6.7 | 2.9 | 0.63 | 1 | 0.43 | 2.3 | Activity (SW480 [13]): Dose-dependent effect; Activity (SW480 [14]): 38.03%; Activity (SW480 [15]): 26.74%; Activity (SW480 [16]): 22.03%; Activity (SW480 [17]): 19.13%; Activity (SW480 [18]): 18.27%; Activity (SW480 [19]): 15.47%; Activity (SW480 [20]): 42.84%; Activity (SW480 [21]): 62.5%; Activity (SW480 [22]): 54.99%; Ratio IC50 (HeLa [1]): 0.7; Ratio IC50 (MCF7 [2]): 0.5; Ratio IC50 (HEp-2 [3]): 33.9; Ratio IC50 [4]: 8.3; Ratio IC50 (SW480 [5]): 2.3; Ratio IC50 [6]: 6.6
Cc1cc(C)nc(SCc2cc(=O)c3ccccc3o2)n1 | > 25 | > 25 | > 25 | > 25 | > 25 | > 25 | –
Cc1cc(C)n2nc(SCc3nnc(SCn4cnc5c(Cl)cccc5c4=O)s3)nc2n1 | > 25 | > 25 | > 25 | > 25 | > 25 | > 25 | –
Cc1cc(C)n2nc(SCc3nnc(SCc4cc(=O)c5ccccc5o4)n3N)nc2n1 | > 25 | > 25 | > 25 | > 25 | > 25 | > 25 | –
Cc1ccc2oc(CSc3nc(C)cc(C)n3)cc(=O)c2c1 | > 25 | > 25 | > 25 | > 25 | > 25 | > 25 | –
Cc1cc(C)n2nc(SCn3cnc4ccccc4c3=O)nc2n1 | > 25 | > 25 | > 25 | > 25 | > 25 | > 25 | –
O=c1cc(SCn2cnc3ccccc3c2=O)sc2ccccc12 | 5.3 | 5.9 | 4.1 | 8.5 | 17 | 6.3 | –
Cc1cc(C)n2nc(SCc3nnc(SCc4cc(=O)c5ccccc5o4)o3)nc2n1 | > 25 | > 25 | > 25 | > 25 | > 25 | > 25 | –
Cc1nnc(SCc2coc3ccc(Cl)cc3c2=O)o1 | 5 | 6.4 | 3.3 | 3.5 | 8.7 | 3.2 | –
Cc1ccc2oc(CSc3nnc(C)o3)cc(=O)c2c1 | > 25 | > 25 | > 25 | > 25 | > 25 | > 25 | –
Cc1cc(C)n2nc(SCc3nnc(SCc4cc(=O)oc5cc(O)cc(C)c45)s3)nc2n1 | > 25 | > 25 | > 25 | > 25 | > 25 | > 25 | –
Nc1nnc(SCn2cnc3ccccc3c2=O)s1 | > 25 | > 25 | > 25 | > 25 | > 25 | > 25 | –
Cc1cc(C)n2nc(SCc3nnc(SCc4coc5ccccc5c4=O)n3-c3ccccc3)nc2n1 | > 25 | 22.1 | 2.9 | 12.4 | 16.6 | > 25 | –
Cc1cc(C)n2nc(SCn3cnc4c(Cl)cccc4c3=O)nc2n1 | > 25 | > 25 | > 25 | > 25 | > 25 | > 25 | –
Cc1ccc2oc(CSc3nnc(N)s3)cc(=O)c2c1 | > 25 | > 25 | > 25 | > 25 | > 25 | > 25 | –
COC(=O)Nc1ccc2c(CSc3nnc(CSc4nc(C)cc(C)n4)s3)cc(=O)oc2c1 | 9.4 | 2.1 | 4.6 | 3.7 | 2.3 | 15.9 | –
O=c1cc(CSc2nc3ccccc3s2)oc2ccc(Cl)cc12 | > 25 | > 25 | > 25 | > 25 | > 25 | > 25 | –
Cc1ccc2oc(CSc3nnc(C)s3)cc(=O)c2c1 | > 25 | > 25 | > 25 | > 25 | > 25 | > 25 | –
Cc1cc(C)n2nc(SCc3nnc(SCc4cc(=O)c5ccccc5o4)s3)nc2n1 | > 25 | > 25 | > 25 | > 25 | > 25 | > 25 | –
Cc1nnc(SCc2coc3ccc(Cl)cc3c2=O)s1 | 13.4 | 4.2 | 2.2 | 3.2 | 7.6 | 9.7 | –
